Experimental data published in patent US9625448B2, “Double caged GABA compounds, bis-CNB-GABA” (The Trustees of Princeton University, priority 2014, dated 2017).

Tests used:
[1] = Quantum yield of photolysis; format: physicochemical; details: 254 nm light
Protocol: Quantum yield was a more difficult characteristic to determine. Most published routes of determining quantum yield rely on exposing the compound to a known amount of light and calculating the percent conversion of caged compound to substrate. However, this often requires laser sources and equipment beyond the scope of available facilities. Therefore, it was necessary to develop a way to assess quantum yield with a more practical method. As an alternative, quantum yield was determined by exposing a compound to light alongside a caged compound of known quantum yield. The percent conversion to product of both can be determined, and quantum yield of the unknown caged compound can be calculated using the known quantum yield of the standard.
This method was employed using single-caged CNB-GABA, with a quantum yield of 0.14 (Matsuzaki et al., 2010 Nature Chemical Biology, 6, 255-257, which is incorporated herein by reference as if fully set forth). Referring to this figure, GABA backbone is shown in light gray.
Equimolar amounts of single-caged GABA and bis-CNB-GABA were stirred in separate cuvettes in pH 7.0 phosphate buffer solution and exposed to 254 nm light for 16.5 minutes. An internal standard (1,2-dimethoxyethane) of known amount was then added to each solution, and the moles of GABA released from each compound was determined by ^1HNMR. The peaks corresponding to GABA as well as those from the internal standard were then identified and integrated. From this, moles of GABA and percent conversion were calculated for both bis-CNB-GABA and mono-CNB-GABA. FIG. 34 illustrates NMR data used to determine quantum yield. Referring to FIG. 34, the […] on the top illustrates bis-CNB-GABA before light exposure. Arrows denote methylene peaks of bis-CNB-GABA. Integrated peaks in each spectrum correspond to di-methoxyethane, used as an internal standard. […]
Quantum yield was determined by uncaging bis-CNB-GABA alongside a caged compound of known quantum yield (mono-CNB-GABA, QY=0.16, from Invitrogen). […]

GABAA receptors = experiment: Monosynaptic IPSC, whole-cell patch clamp of dentate granule cells of rat hippocampal slices (Molnár & Nadler, 2000); format: cell-based
Protocol: FIGS. 25A-25B illustrate CNB-GABA depressed in a concentration-dependent manner the monosynaptic IPSC evoked by stimulation of the molecular layer as was observed by Molnár & Nadler, 2000. Referring to FIGS. 2A-25B, stimuli were delivered every 30 s. […] FIG. 25B illustrates cumulative concentration-response curve. Referring to FIG. 25B, the IC for CNB-GABA was essentially the same in the absence (28±9 mM, mean±S.D., n=5) and presence (32±13 mM, mean±S.D., n=4) of the GABAB receptor antagonist CGP 55845A. (Molnár & Nadler, 2000 European Journal of Pharmacology, 391, 255-262, which is incorporated herein by reference as if fully set forth).
FIG. 26 illustrates whole-cell patch clamp recordings from dentate granule cells of rat hippocampal slices reported by Molnár & Nadler, 2000. […] Holding potential of −80 mV. (Molnár & Nadler, 2000 European Journal of Pharmacology, 391, 255-262, which is incorporated herein by reference as if fully set forth, which is incorporated herein by reference as if fully set forth). […] FIG. 27 illustrates summary of the amplitudes of the current evoked by puff of 100 μM GABA and caged compounds around the soma reported by Matsuzaki et al., 2010. The amplitude was normalized to the mean current that was induced by GABA application alone. Left panel illustrates control (n=7); +10 mM CNI-GABA (n=7). […]

SMILES	quantum yield ([1]; pH 7.0 phosphate buffer, relative to CNB-GABA (0.14))	quantum yield at the N-position ([1]; relative to mono-O-CNB-GABA)	quantum yield at the O-position ([1]; relative to mono-O-CNB-GABA)	concentration required to generate 33% reduction in response (GABAA receptors) [µM]	IC33 (GABAA receptors; Table 1, calculated, q=0.33, in mM)
O=C(CCCNC(C(=O)O)c1ccccc1[N+](=O)[O-])OC(C(=O)O)c1ccccc1[N+](=O)[O-] (centres unmarked) [bis-CNB-GABA, 2-((4-(Carboxy(2-nitrophenyl)methoxy)-4-oxobutyl)amino)-2-(2-nitrophenyl)acetic acid]	0.07	0.032	0.15	–	–
NCCCC(=O)OC(C(=O)O)c1ccccc1[N+](=O)[O-] (centres unmarked) [mono-CNB-GABA]	–	–	–	14	0.014
